# Measured values published in patent US9464291B2, “Methods and compositions for the treatment of cancer” (University of South Alabama, priority 2012, dated 2016).
# “And” between values parts separate entries of the source, which are not always exact repeats. Equal entries are not always repeated. “Also recorded” adds a separate entry of the source. Where two headings read alike, the source gives them in different places.
# Key:
# A2780-CP70 cells [1] = assay: Cisplatin cell growth / cell killing curves in A2780-CP70 cells; format: cell-based, human; conditions: cisplatin alone (lipofectamine only / control cells)
# Description: A2780-CP70 cells were transfected with 0.07 μg/well anti-Gli1 shRNA construct or control. Transfected cells were treated with 0 μM, 10 μM, 30 μM, and 100 μM cisplatin at 24 hr post-transfection. Percent cell growth was determined relative to control cells. […] In another experiment, A2780-CP70 cells were transfected with 0.02 μg/well or 0.07 μg/well anti-Gli1 shRNA construct. Transfected cells were treated with 0 μM, 2 μM, 5 μM, 10 μM, 30 μM, and 50 μM cisplatin at 24 hr post-transfection. Percent cell growth was determined relative to control cells (FIG. 52B).
# Control cells were treated with cisplatin only. Percent cell growth was determined relative to control cells.
# c-jun = c-jun mRNA (semi-quantitative PCR) and protein (Western blot) in A2780-CP70 cells; format: cell-based, human; conditions: A2780-CP70
# Description: Controls included α-tubulin and histone deacetylase 3. C-jun antibody recognizes non-phosphorylated c-jun protein.
# c-jun and c-fos mRNA expression was examined in A2780-CP70 cells transfected with anti-GLI1 shRNA construct at 6 hr, 24 hr, 48 hr, and 72 hr post-transfection using semi-quantative PCR analysis (FIG. 41).
# A2780-CP70 cells were transfected with an IC50 dose of anti-Gli1 shRNA (treated) construct or vector (control). Total intracellular c-jun mRNA and c-jun protein was measured at 6 hr, 24 hr, 48 hr, and 72 hr.
# C-jun mRNA and protein levels were further examined in cisplatin-resistant A2780-CP70 cells treated with an IC50 dose of anti-Gli1 shRNA. FIG. 78 depicts mRNA levels (panel A) and protein levels (panel B) in cells at 6, 24, 48, and 72 hours post-treatment.
# ERCC1, XPD, XRCC1 [2] = assay: ERCC1, XPD, XRCC1 mRNA / protein levels in A2780-CP70 cells; format: cell-based, human
# [3] = tested on: c-jun (Ser 63, Ser 73, Thr 91, Thr 93); assay: c-jun protein phosphorylation, Western blot, A2780-CP70 cells; format: cell-based, human; conditions: 72 hr observation
# Description: Protein levels for c-jun, c-fos, phosphorylated c-jun (Ser 63), phosphorylated c-jun (Ser 73), and phosphorylated c-jun (Thr 91, Thr 93) were tested in cytosolic, nuclear, and whole cell fractions at 0 hr, 6 hr, 24 hr, 48 hr, and 72 hr. Internal controls for cytosolic and nuclear fractions included α-tubulin and histone deacetylase 3.
# Phosphorylation of c-jun in A2780-CP70 cells transfected with anti-GLI1 shRNA construct was assessed using Western blot analysis. Protein levels for c-jun, phosphorylated c-jun (Ser 63), phosphorylated c-jun (Ser 73), and phosphorylated c-jun (Thr 91, Thr 93) were examined at 0 hr, 6 hr, 24 hr, 48 hr, and 72 hr.
# A2780-CP70 cells were treated with an IC50 dose of cisplatin and an IC50 dose of anti-Gli1 shRNA.
# A2780-CP70 cells [4] = conditions: cisplatin-resistant A2780-CP70; cited from earlier work
# ERCC1, XPD, XRCC1 [5] = conditions: cells treated with cisplatin only; cited from earlier work
# [6] = tested on: c-jun (Ser 63, Ser 73, Thr 91, Thr 93); conditions: A2780-CP70; 3-5 hr after cisplatin treatment; cited from earlier work
structure (smiles),measurement,setting,value
N.N.[Cl][Pt][Cl] [cisplatin],IC50,A2780-CP70 cells [1],30 µM and 28 µM
same,time of peak c-jun level,c-jun; IC50 dose of agent,6 h
same,c-jun protein expression,c-jun; IC50 dose of cisplatin,increased substantial
same,"time of highest ERCC1, XPD, XRCC1 mRNA levels after cisplatin exposure","ERCC1, XPD, XRCC1 [2]; A2780-CP70, cyclopamine pretreatment vs cisplatin alone",4 to 6 h
same,"increase of ERCC1, XPD, and XRCC1 protein expression levels","ERCC1, XPD, XRCC1 [2]; cells treated with cisplatin",5 fold
same,expected rise of ERCC1 (as would XPD and XRCC1),"ERCC1, XPD, XRCC1 [2]; cisplatin alone (unpublished data)",more than 6 fold
same,c-jun phosphorylation at Ser63,[3],increases specifically at Ser63 and Ser73
same,c-jun phosphorylation at Thr91/93,[3],do not change significantly; also recorded: did not significantly change
same,IC50,A2780-CP70 cells [4],~40 µM
same,expected increase in ERCC1 mRNA levels,"ERCC1, XPD, XRCC1 [5]",6 fold
same,peak c-jun phosphorylation over baseline,[6],15 fold
